In US20260206761A1, “HETEROARYL-TRIAZOLE COMPOUNDS AS PESTICIDES” (Bayer Aktiengesellschaft, priority 2019, published 2026):

Columns and labels:
Format in all cases: in vivo
[1] = tested on: Anopheles funestus strain FUMOZ-R; assay: Anopheles funestus test (ANPHFU surface treatment & contact assay); conditions: 24 hours after contact, read-out: efficacy (mortality); for mortality at 4 mg/m2: surface concentration 4 mg/m^2, exposure 30 minutes; for mortality at 20 mg/m2: surface concentration 20 mg/m^2, exposure 30 minutes
Protocol: Anopheles funestus Test (ANPHFU Surface Treatment & Contact Assay)
(§1) Solvent: Aceton+2000 ppm rapeseed oil methyl ester (RME)
(§2) In order to produce a sufficient, active ingredient containing solution it is necessary to solve the test compound in the solvent-mix (acetone at 2 mg/ml/RME 2000 ppm). This solution is pipetted onto a glazed tile and after evaporation of the acetone, adult mosquitoes of the species Anopheles funestus strain FUMOZ-R (Hunt et al., Med. Vet. Entomol. 2005 September; 19(3): 271-275) are placed onto the dried surface. The exposure time is 30 minutes. Mortality in percent (%) is determined 24 hours after contact of the insects to the treated surface. 100% mortality means that all tested insects are dead, whereas 0% means that no insect died.

[2] = tested on: larvae of the banded cucumber beetle (Diabrotica balteata); assay: Diabrotica balteata spray test; conditions: 168 h, after 7 days, read-out: activity (efficacy: seedlings grown); for pest or weed control at 100 g/ha: application rate 100 g/ha (=32 pg/well); for pest or weed control at 500 g/ha: application rate 500 g/ha (=160 pg/well)
Summary of the method: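 Wheat seedlings, germinated 1 day on agar (5 seeds/well), sprayed with active compound in acetone/DMF diluted in water containing 1000 ppm emulsifier, then infested with 10-20 D. balteata larvae. Efficacy (%) scored after 7 days: 100% = seedlings grown as untreated uninfested control, 0% = no seedlings grown.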

[3] = tested on: green peach aphid (Myzus persicae); assay: Myzus persicae spray test; conditions: 120 h, after 5 days; for mortality at 100 g/ha: application rate 100 g/ha
Summary of the method: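 Chinese cabbage leaf disks carrying all instars of M. persicae sprayed with compound in acetone/DMF, diluted in water with 1000 ppm alkylarylpolyglycol ether emulsifier. Percent mortality scored after 5 days (100% = all aphids killed).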

[4] = tested on: Aedes aegypti strain MONHEIM; assay: Aedes aegypti test (AEDSAE surface treatment & contact assay); conditions: 24 hours after contact, read-out: efficacy (mortality); for mortality at 4 mg/m2: surface concentration 4 mg/m^2, exposure 30 minutes; for mortality at 20 mg/m2: surface concentration 20 mg/m^2, exposure 30 minutes
Summary of the method: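 Compound in acetone (2 mg/ml) with 2000 ppm RME pipetted onto glazed tile and dried; adult Aedes aegypti MONHEIM exposed 30 min. Percent mortality scored 24 h after contact.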

[5] = tested on: larvae of the southern green stink bug (Nezara viridula); assay: Nezara viridula spray test; conditions: 96 h, after 4 days; for mortality at 100 g/ha: application rate 100 g/ha; for mortality at 500 g/ha: application rate 500 g/ha
Summary of the method: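 Compound in acetone/dimethylformamide, diluted in water with 1000 ppm alkylarylpolyglycol ether emulsifier, sprayed onto barley plants carrying stink bug larvae. Mortality (%) scored after 4 days, 100% meaning all insects killed.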

[6] = tested on: green peach aphid (Myzus persicae); assay: Myzus persicae oral test; conditions: 120 h, application rate 4 ppm, after 5 days
Summary of the method: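 Compound was dissolved at 1 part by weight in 100 parts acetone, then diluted with water to test concentration and combined with IPL41 insect medium (33%+15% sugar). A mixed aphid population fed on this through a parafilm seal, and mortality (%) was scored after 5 days.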

[7] = tested on: brown planthopper (Nilaparvata lugens); assay: Nilaparvata lugens spray test; conditions: 96 h, after 4 days; for mortality at 500 g/ha: application rate 500 g/ha
Protocol: Nilaparvata lugens—Spray Test
Solvent: 78.0 parts by weight of acetone • • 1.5 parts by weight of dimethylformamide
Emulsifier: alkylarylpolyglycol ether
To produce a suitable preparation of active compound, 1 part by weight of active compound is mixed with the stated amount of solvents and is diluted with water, containing an emulsifier concentration of 1000 ppm, to the desired concentration. Further test concentrations are prepared by dilution with emulsifier containing water.
Rice plants (Oryza sativa) are sprayed with a preparation of the active ingredient of the desired concentration and the plants are infested with the brown planthopper (Nilaparvata lugens).
After 4 days mortality in % is determined. 100% means all planthoppers have been killed and 0% means none of the planthoppers have been killed.

[8] = tested on: fall armyworm larvae (Spodoptera frugiperda); assay: Spodoptera frugiperda spray test; conditions: 168 h, read-out: activity (mortality)
Summary of the method: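 Compound in acetone/DMF, diluted in water with 1000 ppm alkylarylpolyglycol ether emulsifier, sprayed on maize leaf sections. Dried leaves infested with fall armyworm larvae; % mortality after 7 days (100% = all killed, 0% = none).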

[9] = tested on: adult engorged female ticks (Rhipicephalus microplus); assay: Rhipicephalus (Boophilus) microplus injection test; conditions: 168 h, egg deposition after 7 days, read-out: activity (efficacy: infertile eggs); for pest or weed control at 4 pg: application rate 4 pg/animal; for pest or weed control at 0.02 mg: application rate 20 μg/animal
Summary of the method: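 Efficacy is scored from egg fertility, with 100% meaning every egg infertile and 0% every egg fertile. Five engorged females per test received 1 μL DMSO solution abdominally. Eggs of unclear fertility were kept until hatching, about 42 days.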

[10] = tested on: Rhipicephalus microplus larvae (strain Parkhurst, resistant against synthetic pyrethroids); assay: Rhipicephalus (Boophilus) microplus in-vitro contact test, larval cattle tick; conditions: after 48 hours, read-out: activity (efficacy: larvae dead or moribund); for pest or weed control at 100 g/ha: application rate 1 pg/cm^2 (=100 g/ha); for pest or weed control at 500 g/ha: application rate 5 pg/cm^2 (=500 g/ha)
Summary of the method: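 Acetone solutions coated onto inner walls of glass tubes by rotation (900 ppm giving 5 μg/cm^2); after evaporation, 20-50 larvae added per tube and held at 27° C., 85% relative humidity. Efficacy read after 48 h from negative geotactic behaviour; 100% = all larvae dead or moribund.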

[11] = tested on: adult unfed cat fleas (Ctenocephalides felis); assay: Ctenocephalides felis oral test; conditions: 48 h, read-out: activity (mortality)
Summary of the method: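 About 20 adult unfed fleas fed through parafilm on cattle blood containing compound (DMSO stock diluted in blood), blood held at 37 °C and fleas at room temperature. Mortality (%) scored after 2 days.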

[12] = tested on: adult cat fleas (Ctenocephalides felis); assay: Ctenocephalides felis in-vitro contact test, adult cat flea; conditions: application rate 5 μg/cm^2 (=500 g/ha), after 48 hours, read-out: activity (efficacy: fleas dead or moribund)
Summary of the method: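 Acetone solutions of compound coated onto inner walls of glass tubes (900 ppm giving […]); after drying, 5-10 adult Ctenocephalides felis added and held at room temperature. At 48 h, fleas placed on a 45-50° C heating plate; those unable to climb away scored dead or moribund, expressed as % efficacy.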

[13] = tested on: adult brown dog ticks (Rhipicephalus sanguineus); assay: Rhipicephalus sanguineus in-vitro contact test, adult brown dog ticks; conditions: after 48 hours, read-out: activity (efficacy: ticks dead or moribund); for pest or weed control at 100 g/ha: application rate 1 pg/cm^2 (=100 g/ha); for pest or weed control at 5 µg/cm2, 500 g/ha: application rate 5 μg/cm^2 (=500 g/ha)
Summary of the method: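 Efficacy (%) reflects the fraction of adult ticks dead or moribund after 48 h of contact with a dried acetone film on tube walls at 5 μg/cm^2 (from 900 ppm). Moribund status was assessed by inability to climb away from heat at 45-50° C.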

[14] = tested on: Culex quinquefasciatus strain P00; assay: Culex quinquefasciatus test (CULXFA surface treatment & contact assay); conditions: 24 hours after contact, read-out: efficacy (mortality); for mortality at 4 mg/m2: surface concentration 4 mg/m^2, exposure 30 minutes
Protocol: Culex quinquefasciatus Test (CULXFA Surface Treatment & Contact Assay)
as §1
as §2, with “2 000” for “2000”, “Culex quinquefasciatus” for “Anopheles funestus”, “P00” for “FUMOZ-R (Hunt et al., Med. Vet. Entomol. 2005 September; 19(3): 271-275)”

[15] = tested on: Musca domestica strain WHO-N; assay: Musca domestica test (MUSCDO surface treatment & contact assay); conditions: surface concentration 20 mg/m^2, exposure 30 minutes, 24 hours after contact, read-out: efficacy (mortality)
Protocol: Musca domestica Test (MUSCDO Surface Treatment & Contact Assay)
as §1
as §2, with “flies” for “mosquitoes”, “Musca domestica” for “Anopheles funestus”, “WHO—N” for “FUMOZ-R (Hunt et al., Med. Vet. Entomol. 2005 September; 19(3): 271-275)”

Compound	pest or weed control at 100 g/ha [2] [%]	mortality at 100 g/ha [3] [%]	mortality at 4 mg/m2 [4] [%]	mortality at 20 mg/m2 [4] [%]	mortality at 100 g/ha [8] [%]	mortality at 500 g/ha [5] [%]	mortality at 500 g/ha [7] [%]	pest or weed control at 4 pg [9] [%]	pest or weed control at 0.02 mg [9] [%]	pest or weed control at 100 g/ha [10] [%]	pest or weed control at 500 g/ha [10] [%]	mortality at 100 ppm [11] [%]	also measured
CC(NC(=O)c1cc(Cl)cc(S(C)(=O)=O)c1)c1nc(Cl)nn1-c1ncccn1 (racemic) [I-29, 3-chloro-N-[1-(5-chloro-2-pyrimidin-2-yl-1,2,4-triazol-3-yl)ethyl]-5-methylsulfonyl-benzamide]	100	90	80 to 100	80 to 100									mortality at 4 mg/m2 [1]: 80 to 100%; mortality at 20 mg/m2 [1]: 80 to 100%; mortality at 100 g/ha [5]: 90%; mortality at 4 ppm [6]: 100%
CC(NC(=O)c1cc(C(F)(F)F)cc(S(C)(=O)=O)c1)c1nc(Br)nn1-c1ncccn1 (stereo not drawn) [I-38]	100	90											mortality at 100 g/ha [5]: 100%; mortality at 4 ppm [6]: 100%; mortality at 100 g/ha ([7]; application rate 100 g/ha): 100%
COc1nc([C@H](C)NC(=O)c2cc(OC(F)(F)F)cc(S(C)(=O)=O)c2)n(-c2ncc(Cl)cn2)n1 [I-77]	100	100			100	100	100						
COc1nc([C@H](C)NC(=O)c2cc(C(F)F)cc(S(C)(=O)=O)c2)n(-c2ncc(Cl)cn2)n1 [I-88]	100					100	100						
C[C@H](NC(=O)c1cc(OC(F)(F)F)cc(S(=O)(=O)C2CC2)c1)c1nc(C2CC2)nn1-c1ncc(Cl)cn1 [I-93]	100	100			100	100	90						
C[C@H](NC(=O)c1cc(C(F)(F)F)cc(S(C)(=O)=O)c1)c1nc(Br)nn1-c1ncccn1 [I-95, N-[(1S)-1-(5-bromo-2-pyrimidin-2-yl-1,2,4-triazol-3-yl)ethyl]-3-methylsulfonyl-5-(trifluoromethyl)benzamide]	100	90			100		100						
C[C@H](NC(=O)c1cc(C(F)(F)F)cc(S(C)(=O)=O)c1)c1nc(Cl)nn1-c1ncccn1 [I-96, N-[(1S)-1-(5-chloro-2-pyrimidin-2-yl-1,2,4-triazol-3-yl)ethyl]-3-methylsulfonyl-5-(trifluoromethyl)benzamide]	100				100	100	100						
C[C@H](NC(=O)c1cncc(C2CC2)c1)c1ncnn1-c1ccc(C#N)cn1 [II-1]			80 to 100										mortality at 4 mg/m2 [1]: 80 to 100%; mortality at 500 g/ha [8]: 100%
Cc1nc([C@H](C)NC(=O)c2csc(Cl)c2)n(-c2ccc(C#N)cn2)n1 [II-8]	100		80 to 100	80 to 100	83			80	100	100	100	100	mortality at 20 mg/m2 [1]: 80 to 100%; mortality at 500 g/ha [8]: 100%; pest or weed control at 5 µg/cm2 [12]: 100%; pest or weed control at 500 g/ha [2]: 100%
C[C@H](NC(=O)c1csc(Cl)c1)c1ncnn1-c1ncccn1 [II-30]			80 to 100	80 to 100				100	100	100	100	100	mortality at 4 mg/m2 [1]: 80 to 100%; pest or weed control at 100 g/ha [13]: 100%; pest or weed control at 5 µg/cm2, 500 g/ha [13]: 100%; pest or weed control at 5 µg/cm2 [12]: 90%; pest or weed control at 500 g/ha [2]: 100%; mortality at 500 g/ha ([3]; application rate 500 g/ha): 90%
C[C@H](NC(=O)c1cc(Cl)cc(S(=O)(=O)C(F)F)c1)c1ncnn1-c1ccc(Cl)cn1 [II-37]	100		80 to 100	80 to 100	100			100	100	100	100	100	mortality at 4 mg/m2 [14]: 80 to 100%; mortality at 20 mg/m2 ([14]; surface concentration 20 mg/m^2, exposure 30 minutes): 80 to 100%; mortality at 20 mg/m2 [15]: 80 to 100%; mortality at 500 g/ha [8]: 100%; pest or weed control at 500 g/ha [2]: 100%
C[C@H](NC(=O)c1cc(C(F)(F)F)cc(S(=O)(=O)C2CC2)c1)c1ncnn1-c1ccc(Cl)cn1 [II-46]	100		80 to 100	80 to 100	100			100	100	100	100	90	mortality at 4 mg/m2 [14]: 80 to 100%; mortality at 20 mg/m2 [15]: 80 to 100%; pest or weed control at 100 g/ha [13]: 100%; pest or weed control at 5 µg/cm2, 500 g/ha [13]: 80%
